# Experimental data published in patent US8158628B2, “Sulfonylated 1,2,3,4-tetrahydropyrrolo[1,2-a]pyrazine compounds and their use as pharmaceuticals” (Gruenenthal GmbH, priority 2009, dated 2012).
# Key:
# [1] = biological target: T1, B1R of the rat (Rattus norvegicus, UniProt P97583); experiment: FLIPR Ca2+ functional assay, B1R antagonism, rat B1R in CHO K1 cells; format: cell-based; conditions: test substance 10 μM; rB1R CHO K1 cells; agonist Des-Arg9 bradykinin at EC80; % of maximum achievable inhibition
# T1 construct: expressed in transfected cells; host or cells: CHO K1 cells (Chinese hamster ovary), stably transfected
# T1 sequence (P97583 1-337): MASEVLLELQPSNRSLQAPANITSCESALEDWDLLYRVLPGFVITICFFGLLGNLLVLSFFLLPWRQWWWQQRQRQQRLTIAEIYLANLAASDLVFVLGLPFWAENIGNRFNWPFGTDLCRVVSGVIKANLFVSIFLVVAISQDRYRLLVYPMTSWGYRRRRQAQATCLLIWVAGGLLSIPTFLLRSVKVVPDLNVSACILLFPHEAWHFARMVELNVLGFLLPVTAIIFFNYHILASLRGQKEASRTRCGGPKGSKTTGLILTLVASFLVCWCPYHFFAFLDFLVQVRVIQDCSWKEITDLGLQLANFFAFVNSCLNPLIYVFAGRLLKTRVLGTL
# Procedure, shortened: (§1)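 IC50 values come from varied compound concentrations applied 10-20 min before an EC80 agonist challenge, with Des-Arg9 bradykinin for rat and Lys-Des-Arg9 bradykinin for human receptor. Ca2+ influx in Fluo-4-loaded CHO K1 transfectants was measured by FLIPR peak fluorescence. Data are % inhibition vs maximum, n=2-3, N>=2.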
# [2] = biological target: T2, human B1R (Homo sapiens, UniProt P46663); experiment: FLIPR Ca2+ functional assay, B1R antagonism, human B1R in CHO K1 cells; format: cell-based; conditions: test substance 10 μM; hB1R CHO K1 cells; agonist Lys-Des-Arg9 bradykinin at EC80; % of maximum achievable inhibition
# T2 construct: expressed in transfected cells; host or cells: CHO K1 cells (Chinese hamster ovary), stably transfected
# T2 sequence (P46663 1-353): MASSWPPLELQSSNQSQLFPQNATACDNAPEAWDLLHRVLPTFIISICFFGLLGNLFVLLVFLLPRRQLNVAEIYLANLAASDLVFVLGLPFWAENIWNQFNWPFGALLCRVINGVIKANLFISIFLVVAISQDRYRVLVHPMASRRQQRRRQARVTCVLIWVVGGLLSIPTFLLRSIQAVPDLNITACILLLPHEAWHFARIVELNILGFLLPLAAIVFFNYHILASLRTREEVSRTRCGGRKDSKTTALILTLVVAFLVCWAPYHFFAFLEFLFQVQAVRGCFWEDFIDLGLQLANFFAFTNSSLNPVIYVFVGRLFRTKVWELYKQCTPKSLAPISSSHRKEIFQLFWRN
# Procedure, shortened: as §1
Structure (SMILES),inhibition at 10 µM [1],inhibition at 10 µM [2]
"COc1cc(C)c(S(=O)(=O)N2CCn3cccc3C2COCC(=O)N2CCC(Oc3ccncc3)C2)c(C)c1 (stereo not shown) [Example 38, 2-[[2-[(4-Methoxy-2,6-dimethyl-phenyl)sulfonyl]-1,2,3,4-tetrahydro-pyrrolo[1,2-a]pyrazin-1-yl]-methoxy]-1-(3-pyridin-4-yloxy-pyrrolidin-1-yl)-ethanone]",104%,98.1%
"COc1cc(C)c(S(=O)(=O)N2CCn3cccc3C2COCC(=O)N(C)C2CCN(c3ccncc3)CC2)c(C)c1 (stereo not shown) [Example 39, 2-[[2-[(4-Methoxy-2,6-dimethyl-phenyl)sulfonyl]-1,2,3,4-tetrahydro-pyrrolo[1,2-a]pyrazin-1-yl]-methoxy]-N-methyl-N-(1-pyridin-4-yl-piperidin-4-yl)-acetamide]",105%,99.6%
"COc1cc(C)c(S(=O)(=O)N2CCn3cccc3C2COCC(=O)N2CCC(N3CC4CC3CN4C)CC2)c(C)c1 (stereo not shown) [Example 40, 2-[[2-[(4-Methoxy-2,6-dimethyl-phenyl)sulfonyl]-1,2,3,4-tetrahydro-pyrrolo[1,2-a]pyrazin-1-yl]-methoxy]-1-[4-(3-methyl-3,6-diazabicyclo[2.2.1]heptan-6-yl)-piperidin-1-yl]-ethanone]",94.9%,99.6%
"COc1ccc2cc(S(=O)(=O)N3CCn4cccc4C3CC(=O)NCCc3ccc(C4=NCCN4)cc3)ccc2c1 (stereo not shown) [Example 41, N-[2-[4-(4,5-Dihydro-1H-imidazol-2-yl)-phenyl]-ethyl]-2-[2-[(6-methoxy-naphthalen-2-yl)sulfonyl]-1,2,3,4-tetrahydro-pyrrolo[1,2-a]pyrazin-1-yl]-acetamide]",103%,100%
"Cc1ccc(S(=O)(=O)N2CCn3cccc3C2CC(=O)N[C@@H]2CCCc3cc(CNC(C)(C)C)ccc32)cc1 (stereo partly drawn) [Example 42, N-[(1R)-6-[(tert-Butylamino)-methyl]-1,2,3,4-tetrahydro-naphthalen-1-yl]-2-[2-(p-tolylsulfonyl)-1,2,3,4-tetrahydro-pyrrolo[1,2-a]pyrazin-1-yl]-acetamide]",107%,99.9%
"COc1ccc2cc(S(=O)(=O)N3CCn4cccc4C3CC(=O)N(C)C3CCc4cc(CN5CCCCC5)ccc4C3)ccc2c1 (stereo not shown) [Example 43, 2-[2-[(6-Methoxy-naphthalen-2-yl)sulfonyl]-1,2,3,4-tetrahydro-pyrrolo[1,2-a]pyrazin-1-yl]-N-methyl-N-[6-(piperidin-1-yl-methyl)-1,2,3,4-tetrahydro-naphthalen-2-yl]-acetamide]",103%,99.5%
"Cc1ccc(S(=O)(=O)N2CCn3cccc3C2CC(=O)N[C@@H]2CCCc3cc(CN4CCC(F)CC4)ccc32)cc1 (stereo partly drawn) [Example 44, N-[(1R)-6-[(4-Fluoro-piperidin-1-yl)-methyl]-1,2,3,4-tetrahydro-naphthalen-1-yl]-2-[2-(p-tolylsulfonyl)-1,2,3,4-tetrahydro-pyrrolo[1,2-a]pyrazin-1-yl]-acetamide]",104%,99.3%
"Cc1ccc(S(=O)(=O)N2CCn3cccc3C2CC(=O)N[C@@H]2CCCc3cc(CNCC(F)(F)F)ccc32)cc1 (stereo partly drawn) [Example 45, 2-(2-Tosyl-1,2,3,4-tetrahydropyrrolo[1,2-a]pyrazin-1-yl)-N—((R)-6-((2,2,2-trifluoroethylamino)methyl)-1,2,3,4-tetrahydronaphthalen-1-yl)acetamide]",64%,50.6%
"Cc1ccc(S(=O)(=O)N2CCn3cccc3C2CC(=O)N[C@H](C)c2ccc(CNC(C)(C)C)cc2)cc1 (stereo partly drawn) [Example 46, N-[(1R)-1-[4-[(tert-Butylamino)-methyl]-phenyl]-ethyl]-2-[2-(p-tolylsulfonyl)-1,2,3,4-tetrahydro-pyrrolo[1,2-a]pyrazin-1-yl]-acetamide]",29%,55.8%
"O=C(CC1c2cccn2CCN1S(=O)(=O)c1cccc(Cl)c1)NC1CCc2cc(CN3CCCCC3)ccc2C1 (stereo not shown) [Example 47, 2-(2-(3-chlorophenylsulfonyl)-1,2,3,4-tetrahydropyrrolo[1,2-a]-pyrazin-1-yl)-N-(6-(piperidin-1-ylmethyl)-1,2,3,4-tetrahydronaphthalen-2-yl)-acetamide]",106%,99.9%
"COc1ccc2cc(S(=O)(=O)N3CCn4cccc4C3CC(=O)NC3Cc4ccc(CN5CCCCC5)cc4C3)ccc2c1 (stereo not shown) [Example 48, 2-(2-(6-methoxynaphthalen-2-ylsulfonyl)-1,2,3,4-tetrahydropyrrolo-[1,2-a]pyrazin-1-yl)-N-(5-(piperidin-1-ylmethyl)-2,3-dihydro-1H-inden-2-yl)-acetamide]",105%,99.6%
"Cc1ccc(S(=O)(=O)N2CCn3cccc3C2CC(=O)NC2CCc3cc(CN4CCCC4)ccc3C2)cc1Cl (stereo not shown) [Example 49, 2-[2-[(3-Chloro-4-methyl-phenyl)sulfonyl]-1,2,3,4-tetrahydro-pyrrolo[1,2-a]pyrazin-1-yl]-N-[6-(pyrrolidin-1-yl-methyl)-1,2,3,4-tetrahydro-naphthalen-2-yl]-acetamide]",100%,99.9%
"Cc1ccc(S(=O)(=O)N2CCn3cccc3C2CC(=O)NC2CCc3cc(CN4CCCCC4)ccc3C2)cc1Cl (stereo not shown) [Example 50, 2-[2-[(3-Chloro-4-methyl-phenyl)sulfonyl]-1,2,3,4-tetrahydro-pyrrolo[1,2-a]pyrazin-1-yl]-N-[6-(piperidin-1-yl-methyl)-1,2,3,4-tetrahydro-naphthalen-2-yl]-acetamide]",99.5%,99.7%
"Cc1ccc(S(=O)(=O)N2CCn3cccc3C2CC(=O)NC2CCc3cc(CNCc4ccccc4)ccc3C2)cc1Cl (stereo not shown) [Example 51, N-[6-[(Benzylamino)-methyl]-1,2,3,4-tetrahydro-naphthalen-2-yl]-2-[2-[(3-chloro-4-methyl-phenyl)sulfonyl]-1,2,3,4-tetrahydro-pyrrolo[1,2-a]pyrazin-1-yl]-acetamide]",103%,99.5%
"Cc1ccc(S(=O)(=O)N2CCn3cccc3C2CC(=O)NC2CCc3cc(CN4CCCc5ccccc54)ccc3C2)cc1Cl (stereo not shown) [Example 52, 2-[2-[(3-Chloro-4-methyl-phenyl)sulfonyl]-1,2,3,4-tetrahydro-pyrrolo[1,2-a]pyrazin-1-yl]-N-[6-(1,2,3,4-tetrahydro-quinolin-1-yl-methyl)-1,2,3,4-tetrahydro-naphthalen-2-yl]-acetamide]",103%,96%
"O=C(CC1c2cccn2CCN1S(=O)(=O)c1cccc(C(F)(F)F)c1)NC1CCCc2cc(CN3CCOCC3)ccc21 (stereo not shown) [Example 53, N-[6-(Morpholin-4-yl-methyl)-1,2,3,4-tetrahydro-naphthalen-1-yl]-2-[2-[[3-(trifluoromethyl)phenyl]sulfonyl]-1,2,3,4-tetrahydro-pyrrolo[1,2-a]pyrazin-1-yl]-acetamide]",102%,99%
"Cc1ccc(S(=O)(=O)N2CCn3cccc3C2CC(=O)NC2CCCc3cc(CN4CCOCC4)ccc32)cc1 (stereo not shown) [Example 54, N-[6-(Morpholin-4-yl-methyl)-1,2,3,4-tetrahydro-naphthalen-1-yl]-2-[2-(p-tolylsulfonyl)-1,2,3,4-tetrahydro-pyrrolo[1,2-a]pyrazin-1-yl]-acetamide]",100%,99%
